ChEMBL document CHEMBL2413072, “Synthesis and in vitro anticancer studies of novel C-2 arylidene congeners of lantadenes” (2013)

What was measured:
Assay type in all cases: functional
[1] = tested on: SR; assay: Growth inhibition of human SR cells assessed as cell growth at 10 uM by sulforhodamine B assay; settings: read-out: Activity
[2] = tested on: MDA-MB-231; assay: Growth inhibition of human MDA-MB-231 cells assessed as cell growth at 10 uM by sulforhodamine B assay; settings: read-out: Activity
[3] = tested on: MCF7; assay: Growth inhibition of human MCF7 cells assessed as growth inhibition at 10 uM by sulforhodamine B assay; settings: read-out: GI
[4] = tested on: IGROV-1; assay: Growth inhibition of human IGROV1 cells assessed as growth inhibition at 10 uM by sulforhodamine B assay; settings: read-out: GI
[5] = tested on: SK-MEL-5; assay: Growth inhibition of human SK-MEL-5 cells assessed as growth inhibition at 10 uM by sulforhodamine B assay; settings: read-out: GI
[6] = tested on: RXF 393; assay: Growth inhibition of human RXF393 cells assessed as cell growth at 10 uM by sulforhodamine B assay; settings: read-out: Activity
[7] = Growth inhibition of human EKVX cells assessed as growth inhibition at 10 uM by sulforhodamine B assay; settings: read-out: GI
[8] = tested on: SF-268; assay: Growth inhibition of human SF268 cells assessed as cell growth at 10 uM by sulforhodamine B assay; settings: read-out: Activity
[9] = tested on: 786-0; assay: Growth inhibition of human 786-0 cells assessed as growth inhibition at 10 uM by sulforhodamine B assay; settings: read-out: GI
[10] = tested on: NCI-H460; assay: Growth inhibition of human NCI-H460 cells assessed as cell growth at 10 uM by sulforhodamine B assay; settings: read-out: Activity
[11] = tested on: OVCAR-5; assay: Growth inhibition of human OVCAR5 cells assessed as growth inhibition at 10 uM by sulforhodamine B assay; settings: read-out: GI
[12] = tested on: SW-620; assay: Growth inhibition of human SW620 cells assessed as growth inhibition at 10 uM by sulforhodamine B assay; settings: read-out: GI
[13] = tested on: MDA-MB-468; assay: Growth inhibition of human MDA-MB-468 cells assessed as cell growth at 10 uM by sulforhodamine B assay; settings: read-out: Activity
[14] = tested on: SN12C; assay: Growth inhibition of human SN12C cells assessed as growth inhibition at 10 uM by sulforhodamine B assay; settings: read-out: GI
[15] = tested on: MDA-MB-435; assay: Growth inhibition of human MDA-MB-435 cells assessed as cell growth at 10 uM by sulforhodamine B assay; settings: read-out: Activity
[16] = tested on: KM12; assay: Growth inhibition of human KM12 cells assessed as cell growth at 10 uM by sulforhodamine B assay; settings: read-out: Activity
[17] = tested on: BT-549; assay: Growth inhibition of human BT549 cells assessed as cell growth at 10 uM by sulforhodamine B assay; settings: read-out: Activity
[18] = tested on: DU-145; assay: Growth inhibition of human DU145 cells assessed as growth inhibition at 10 uM by sulforhodamine B assay; settings: read-out: GI
[19] = tested on: OVCAR-3; assay: Growth inhibition of human OVCAR3 cells assessed as cell growth at 10 uM by sulforhodamine B assay; settings: read-out: Activity
[20] = tested on: NCI-H460; assay: Growth inhibition of human NCI-H460 cells assessed as growth inhibition at 10 uM by sulforhodamine B assay; settings: read-out: GI
[21] = tested on: UO-31; assay: Growth inhibition of human UO31 cells assessed as cell growth at 10 uM by sulforhodamine B assay; settings: read-out: Activity
[22] = tested on: HCT-116; assay: Growth inhibition of human HCT116 cells assessed as growth inhibition at 10 uM by sulforhodamine B assay; settings: read-out: GI
[23] = tested on: BT-549; assay: Growth inhibition of human BT549 cells assessed as growth inhibition at 10 uM by sulforhodamine B assay; settings: read-out: GI
[24] = tested on: MDA-MB-231; assay: Growth inhibition of human MDA-MB-231 cells assessed as growth inhibition at 10 uM by sulforhodamine B assay; settings: read-out: GI
[25] = tested on: ACHN; assay: Growth inhibition of human ACHN cells assessed as cell growth at 10 uM by sulforhodamine B assay; settings: read-out: Activity
[26] = tested on: ACHN; assay: Growth inhibition of human ACHN cells assessed as growth inhibition at 10 uM by sulforhodamine B assay; settings: read-out: GI
[27] = tested on: SF-295; assay: Growth inhibition of human SF295 cells assessed as cell growth at 10 uM by sulforhodamine B assay; settings: read-out: Activity
[28] = tested on: 786-0; assay: Growth inhibition of human 786-0 cells assessed as cell growth at 10 uM by sulforhodamine B assay; settings: read-out: Activity
[29] = tested on: CCRF-CEM; assay: Growth inhibition of human CCRF-CEM cells assessed as cell growth at 10 uM by sulforhodamine B assay; settings: read-out: Activity
[30] = Growth inhibition of human EKVX cells assessed as cell growth at 10 uM by sulforhodamine B assay; settings: read-out: Activity
[31] = tested on: SF-539; assay: Growth inhibition of human SF539 cells assessed as growth inhibition at 10 uM by sulforhodamine B assay; settings: read-out: GI
[32] = tested on: COLO 205; assay: Growth inhibition of human COLO205 cells assessed as growth inhibition at 10 uM by sulforhodamine B assay; settings: read-out: GI
[33] = tested on: LOX IMVI; assay: Growth inhibition of human LOXIMVI cells assessed as cell growth at 10 uM by sulforhodamine B assay; settings: read-out: Activity
[34] = tested on: T47D; assay: Growth inhibition of human T47D cells assessed as cell growth at 10 uM by sulforhodamine B assay; settings: read-out: Activity
[35] = tested on: KM12; assay: Growth inhibition of human KM12 cells assessed as growth inhibition at 10 uM by sulforhodamine B assay; settings: read-out: GI
[36] = tested on: UO-31; assay: Growth inhibition of human UO31 cells assessed as growth inhibition at 10 uM by sulforhodamine B assay; settings: read-out: GI
[37] = Growth inhibition of human NCI-ADR-RES cells assessed as growth inhibition at 10 uM by sulforhodamine B assay; settings: read-out: GI
[38] = tested on: SK-MEL-2; assay: Growth inhibition of human SK-MEL-2 cells assessed as growth inhibition at 10 uM by sulforhodamine B assay; settings: read-out: GI
[39] = Growth inhibition of human HCC2998 cells assessed as cell growth at 10 uM by sulforhodamine B assay; settings: HCC 2998, read-out: Activity
[40] = tested on: UACC-62; assay: Growth inhibition of human UACC62 cells assessed as growth inhibition at 10 uM by sulforhodamine B assay; settings: read-out: GI
[41] = tested on: COLO 205; assay: Growth inhibition of human COLO205 cells assessed as cell growth at 10 uM by sulforhodamine B assay; settings: read-out: Activity
[42] = tested on: IGROV-1; assay: Growth inhibition of human IGROV1 cells assessed as cell growth at 10 uM by sulforhodamine B assay; settings: read-out: Activity
[43] = tested on: HT-29; assay: Growth inhibition of human HT-29 cells assessed as cell growth at 10 uM by sulforhodamine B assay; settings: read-out: Activity
[44] = tested on: SK-MEL-5; assay: Growth inhibition of human SK-MEL-5 cells assessed as cell growth at 10 uM by sulforhodamine B assay; settings: read-out: Activity
[45] = tested on: NCI-H23; assay: Growth inhibition of human NCI-H23 cells assessed as cell growth at 10 uM by sulforhodamine B assay; settings: read-out: Activity
[46] = tested on: HL-60(TB); assay: Growth inhibition of human HL-60(TB) cells assessed as growth inhibition at 10 uM by sulforhodamine B assay; settings: read-out: GI
[47] = tested on: SF-539; assay: Growth inhibition of human SF539 cells assessed as cell growth at 10 uM by sulforhodamine B assay; settings: read-out: Activity
[48] = tested on: SNB-19; assay: Growth inhibition of human SNB19 cells assessed as cell growth at 10 uM by sulforhodamine B assay; settings: read-out: Activity
[49] = tested on: OVCAR-3; assay: Growth inhibition of human OVCAR3 cells assessed as growth inhibition at 10 uM by sulforhodamine B assay; settings: read-out: GI

## CC1(C)C[C@@H](O)[C@]2(C(=O)O)CC[C@]3(C)C(=CC[C@@H]4[C@@]5(C)C/C(=C\C=C\c6ccccc6)C(=O)C(C)(C)[C@@H]5CC[C@]43C)[C@@H]2C1
[1]
  growth at 10 µM: 62.6%
[2]
  growth at 10 µM: 68.9%
[3]
  inhibition of growth at 10 µM: 66.2%
[4]
  inhibition of growth at 10 µM: 39.2%
[5]
  inhibition of growth at 10 µM: 26.3%
[6]
  growth at 10 µM: 84.1%
[7]
  inhibition of growth at 10 µM: 60.6%
[8]
  growth at 10 µM: 70.7%
[9]
  inhibition of growth at 10 µM: 21.9%
[10]
  growth at 10 µM: 45.8%
[11]
  inhibition of growth at 10 µM: < 10%
[12]
  inhibition of growth at 10 µM: 44.2%
[13]
  growth at 10 µM: 72.6%
[14]
  inhibition of growth at 10 µM: 54.5%
[15]
  growth at 10 µM: 72.3%
[16]
  growth at 10 µM: 31.8%
[17]
  growth at 10 µM: 70%
[18]
  inhibition of growth at 10 µM: 28.8%
[19]
  growth at 10 µM: 57.3%
[20]
  inhibition of growth at 10 µM: 54.2%
[21]
  growth at 10 µM: 40.3%
[22]
  inhibition of growth at 10 µM: 82.5%
[23]
  inhibition of growth at 10 µM: 30%
[24]
  inhibition of growth at 10 µM: 31.1%
[25]
  growth at 10 µM: 41.9%
[26]
  inhibition of growth at 10 µM: 58.1%
[27]
  growth at 10 µM: 23.5%
[28]
  growth at 10 µM: 78.1%
[29]
  growth at 10 µM: 19.9%
[30]
  growth at 10 µM: 39.4%
[31]
  inhibition of growth at 10 µM: < 10%
[32]
  inhibition of growth at 10 µM: < 10%
[33]
  growth at 10 µM: 61.4%
[34]
  growth at 10 µM: 37.6%
[35]
  inhibition of growth at 10 µM: 68.2%
[36]
  inhibition of growth at 10 µM: 59.7%
[37]
  inhibition of growth at 10 µM: 23.8%
[38]
  inhibition of growth at 10 µM: 35.4%
[39]
  growth at 10 µM: 82.8%
[40]
  inhibition of growth at 10 µM: 49.6%
[41]
  growth at 10 µM: 97.8%
[42]
  growth at 10 µM: 60.8%
[43]
  growth at 10 µM: 51.7%
[44]
  growth at 10 µM: 73.7%
[45]
  growth at 10 µM: 59.7%
[46]
  inhibition of growth at 10 µM: 61.2%
[47]
  growth at 10 µM: 91.9%
[48]
  growth at 10 µM: 73.4%
[49]
  inhibition of growth at 10 µM: 42.7%

## CC1(C)C[C@@H](O)[C@]2(C(=O)O)CC[C@]3(C)C(=CC[C@@H]4[C@@]5(C)CCC(=O)C(C)(C)[C@@H]5CC[C@]43C)[C@@H]2C1
[1]
  growth at 10 µM: 83.7%
[2]
  growth at 10 µM: 91.3%
[3]
  inhibition of growth at 10 µM: 18.6%
[4]
  inhibition of growth at 10 µM: < 10%
[5]
  inhibition of growth at 10 µM: 12.2%
[6]
  growth at 10 µM: 112%
[7]
  inhibition of growth at 10 µM: < 10%
[8]
  growth at 10 µM: 106%
[9]
  inhibition of growth at 10 µM: 13.8%
[10]
  growth at 10 µM: 94.7%
[11]
  inhibition of growth at 10 µM: < 10%
[12]
  inhibition of growth at 10 µM: < 10%
[13]
  growth at 10 µM: 96.2%
[14]
  inhibition of growth at 10 µM: 16.6%
[15]
  growth at 10 µM: 102%
[16]
  growth at 10 µM: 87.7%
[17]
  growth at 10 µM: 89.9%
[18]
  inhibition of growth at 10 µM: < 10%
[19]
  growth at 10 µM: 104%
[20]
  inhibition of growth at 10 µM: < 10%
[21]
  growth at 10 µM: 86.1%
[22]
  inhibition of growth at 10 µM: 21.2%
[23]
  inhibition of growth at 10 µM: 10.1%
[24]
  inhibition of growth at 10 µM: < 10%
[25]
  growth at 10 µM: 91.8%
[26]
  inhibition of growth at 10 µM: < 10%
[27]
  growth at 10 µM: 80.7%
[28]
  growth at 10 µM: 86.2%
[29]
  growth at 10 µM: 87.5%
[30]
  growth at 10 µM: 99.2%
[31]
  inhibition of growth at 10 µM: < 10%
[32]
  inhibition of growth at 10 µM: < 10%
[33]
  growth at 10 µM: 93.2%
[34]
  growth at 10 µM: 80.8%
[35]
  inhibition of growth at 10 µM: 12.3%
[36]
  inhibition of growth at 10 µM: 13.9%
[37]
  inhibition of growth at 10 µM: < 10%
[38]
  inhibition of growth at 10 µM: < 10%
[39]
  growth at 10 µM: 91%
[40]
  inhibition of growth at 10 µM: 19.5%
[41]
  growth at 10 µM: 101%
[42]
  growth at 10 µM: 92.3%
[43]
  growth at 10 µM: 83.2%
[44]
  growth at 10 µM: 87.8%
[45]
  growth at 10 µM: 92.3%
[46]
  inhibition of growth at 10 µM: 24.8%
[47]
  growth at 10 µM: 106%
[48]
  growth at 10 µM: 94.2%
[49]
  inhibition of growth at 10 µM: < 10%
